Target: PIK3CG (human) (UniProt P48736)
Assay: Assessment of PIK3CG Kinase Activity

Chain of PIK3CG (human) (P48736 whole entry, looked up): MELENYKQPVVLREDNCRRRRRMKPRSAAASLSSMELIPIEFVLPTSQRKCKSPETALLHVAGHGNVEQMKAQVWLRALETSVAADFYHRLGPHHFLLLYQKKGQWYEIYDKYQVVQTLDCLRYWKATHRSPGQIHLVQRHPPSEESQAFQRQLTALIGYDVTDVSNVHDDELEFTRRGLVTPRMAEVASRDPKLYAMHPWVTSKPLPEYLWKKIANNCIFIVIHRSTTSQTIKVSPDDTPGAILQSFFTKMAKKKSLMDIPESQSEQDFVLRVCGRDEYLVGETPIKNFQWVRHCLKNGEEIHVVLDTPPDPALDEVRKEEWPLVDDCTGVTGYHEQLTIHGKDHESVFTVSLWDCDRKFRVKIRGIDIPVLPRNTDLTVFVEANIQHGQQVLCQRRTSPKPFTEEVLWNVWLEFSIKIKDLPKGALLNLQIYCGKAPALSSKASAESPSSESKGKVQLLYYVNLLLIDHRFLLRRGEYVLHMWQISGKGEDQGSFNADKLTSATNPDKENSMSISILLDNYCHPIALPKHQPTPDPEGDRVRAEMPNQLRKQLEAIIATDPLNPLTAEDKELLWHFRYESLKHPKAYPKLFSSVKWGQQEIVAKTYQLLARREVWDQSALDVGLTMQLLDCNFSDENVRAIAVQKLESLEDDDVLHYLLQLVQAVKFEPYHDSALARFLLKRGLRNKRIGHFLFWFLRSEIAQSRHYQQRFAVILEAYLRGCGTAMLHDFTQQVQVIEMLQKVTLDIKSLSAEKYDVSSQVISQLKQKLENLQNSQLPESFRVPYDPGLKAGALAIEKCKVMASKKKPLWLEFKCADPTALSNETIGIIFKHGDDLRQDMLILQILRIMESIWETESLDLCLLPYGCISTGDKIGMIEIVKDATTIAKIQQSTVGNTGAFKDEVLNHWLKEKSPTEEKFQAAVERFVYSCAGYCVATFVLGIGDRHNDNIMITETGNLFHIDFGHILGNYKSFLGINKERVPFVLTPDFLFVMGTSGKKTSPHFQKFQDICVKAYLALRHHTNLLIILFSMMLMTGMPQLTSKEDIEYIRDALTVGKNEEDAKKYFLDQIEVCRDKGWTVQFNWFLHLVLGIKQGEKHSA

IC50, < 800 nM:
CC(=O)Nc1nc2c(s1)-c1c(cnn1-c1cccc(F)c1)CC2
CC(=O)Nc1nc2c(s1)-c1c(cnn1-c1ccc(C(=O)N3CCN(CCO)CC3)cc1)CC2
CC(=O)Nc1nc2c(s1)-c1c(cnn1-c1ccc(C(=O)O)cc1Cl)CC2
COC(=O)c1nn(-c2ccc(C)cc2)c2c1CCc1nc(NC(C)=O)sc1-2
CC(=O)Nc1nc2c(s1)-c1nn(C(=O)c3ccc(Cl)cc3)cc1CC2
CC(=O)Nc1nc2c(s1)-c1c(c(-c3cn(C)cn3)nn1-c1ccccc1C(F)(F)F)CC2
CC(=O)Nc1nc2c(s1)-c1c(cnn1-c1ccc(F)cc1)CC2
CC(=O)Nc1nc2c(s1)-c1c(c(NC(=O)OC(C)C)nn1-c1ccccc1Cl)CC2
CC(=O)Nc1nc2c(s1)-c1c(cnn1-c1ccc(C(=O)N[C@@H](CCCNC(=N)N)C(N)=O)cc1Cl)CC2
CC(=O)Nc1nc2c(s1)-c1nc(-c3c(Cl)cccc3Cl)ncc1CC2
CC(=O)Nc1nc2c(s1)-c1c(cnn1-c1ccc(C(=O)N[C@@H](CCCCN)C(N)=O)cc1Cl)CC2
CC(=O)Nc1nc2c(s1)-c1c(cnn1-c1ccc(C)cc1)C2
Nc1nc2c(s1)-c1c(cnn1-c1ccccc1)C2
COc1ccccc1-c1ncc2c(n1)-c1sc(NC(N)=O)nc1CC2
CC=Cn1cc2c(n1)-c1sc(NC(C)=O)nc1CC2
CC(=O)Nc1nc2c(s1)-c1c(cnn1-c1ccc(C(=O)NC3CCC(=O)O3)cc1)CC2 (stereo not given)
CC(=O)Nc1nc2c(s1)-c1c(c([C@H]3CCCO3)nn1-c1ccccc1Br)CC2
CC(=O)Nc1nc2c(s1)-c1nc(-c3ccc(C(N)=O)cc3)ncc1CC2
CC(=O)Nc1nc2c(s1)-c1c(cnn1-c1ccc(C(=O)N[C@H]3CC[C@@H](N4CCN(c5ccccc5)CC4)CC3)cc1)CC2
COCc1nn(-c2ccccc2Cl)c2c1CCc1nc(NC(C)=O)sc1-2
CC(=O)Nc1nc2c(s1)-c1c(cnn1-c1ccc(C(=O)Nc3ccc(N4CCN(C)CC4)cc3)cc1)CC2
CNC(=O)c1ccc(-c2ncc3c(n2)-c2sc(NC(C)=O)nc2CC3)cc1
CC(=O)Nc1nc2c(s1)-c1c(cnn1-c1ncccn1)CC2
CCSC(=O)Nc1nc2c(s1)-c1c(cnn1-c1ccccc1)CC2
CC(=O)Nc1nc2c(s1)-c1c(cnn1-c1ccc(CC(=O)N[C@@H]3CCOC3=O)cc1)CC2
CC(=O)Nc1nc2c(s1)-c1c(cnn1-c1ccc(C(=O)NCCCCCCNC(=O)c3ccccc3)cc1)CC2
CC(=O)Nc1nc2c(s1)-c1c(cnn1-c1ccccn1)CC2
CC(=O)Nc1nc2c(s1)-c1c(cnn1-c1ccc(F)cc1F)CC2
CNC(=O)Nc1nc2c(s1)-c1c(cnn1-c1ccccc1)CC2
CC(=O)Nc1nc2c(s1)-c1c(c(C(=O)N(C)C)nn1-c1ccccc1Cl)CC2
COCc1nn(-c2ccccc2Br)c2c1CCc1nc(NC(C)=O)sc1-2
CC(=O)Nc1nc2c(s1)-c1c(cnn1-c1ccc(C(=O)N[C@H]3CC[C@H](N4C[C@@H](C)O[C@@H](C)C4)CC3)cc1)CC2
CC(=O)Nc1nc2c(s1)-c1c(cnn1-c1ccc(C(=O)N[C@H]3CCc4nc(N)sc4C3)cc1Cl)CC2
CCN1CCCC(NC(=O)c2ccc(-n3ncc4c3-c3sc(NC(C)=O)nc3CC4)cc2)C1 (stereo not given)
CN(C)C(=O)Nc1nc2c(s1)-c1c(cnn1-c1ccccc1)C2
CC(=O)Nc1nc2c(s1)-c1c(cnn1-c1ccc(C(F)(F)F)cc1)CC2
CC(=O)Nc1nc2c(s1)-c1c(cnn1C)CC2
COC(=O)c1nn(-c2ccccc2C(F)(F)F)c2c1CCc1nc(NC(C)=O)sc1-2
CC(=O)Nc1nc2c(s1)-c1c(c(-c3ccccc3)nn1-c1ccccc1C)CC2
CCCn1cc2c(n1)-c1sc(NC(C)=O)nc1CC2

— the Kinase Knowledgebase extract (Sharma et al. 2016)
